The values below come from patent US8969388B1, “Substituted pyrazolone compounds and methods of use” (Calitor Sciences, LLC, priority 2012, dated 2015).

The target in data set [1] is T1, KDR (h) (Homo sapiens, UniProt P35968).
T1 construct: host or cells: E. coli BL21-derived host (T7 phage) or HEK-293
In words: KDR (h) (VEGF-R2 (h)) kinase assay (IC50). The conditions noted are these: cells marked (IC50) in the Kd table. The format is biochemical. As to the method:
(§1) The above assay procedure can be used to determine the IC50 for inhibition and/or the inhibition constant, Ki. The IC50 is defined as the concentration of compound required to reduce the enzyme activity by 50% under the condition of the assay. The IC50 value is estimated by preparing a 10 point curve using a ½ log dilution series (for example, a typical curve may be prepared using the following compound concentrations; 100 μM, 30 μM, 10 μM, 3 μM, 1 μM, 0.3 μM, 0.1 μM, 0.03 μM, 0.01 μM and 0 μM).
KDR (h) (VEGF-R2 (h)) Assay
(§2) (specific activity approx. 500 cpm/pmol, concentration as required).
(§3) The kinase assays described herein can be performed at Millipore UK Ltd, Dundee Technology Park, Dundee DD2 1SW, UK c-Met (h) Assay.

In data set [2] the target is T2, c-Met (h) (Homo sapiens, UniProt P08581).
T2 construct: host or cells: E. coli BL21-derived host (T7 phage) or HEK-293
T2 sequence (P08581 25-1390): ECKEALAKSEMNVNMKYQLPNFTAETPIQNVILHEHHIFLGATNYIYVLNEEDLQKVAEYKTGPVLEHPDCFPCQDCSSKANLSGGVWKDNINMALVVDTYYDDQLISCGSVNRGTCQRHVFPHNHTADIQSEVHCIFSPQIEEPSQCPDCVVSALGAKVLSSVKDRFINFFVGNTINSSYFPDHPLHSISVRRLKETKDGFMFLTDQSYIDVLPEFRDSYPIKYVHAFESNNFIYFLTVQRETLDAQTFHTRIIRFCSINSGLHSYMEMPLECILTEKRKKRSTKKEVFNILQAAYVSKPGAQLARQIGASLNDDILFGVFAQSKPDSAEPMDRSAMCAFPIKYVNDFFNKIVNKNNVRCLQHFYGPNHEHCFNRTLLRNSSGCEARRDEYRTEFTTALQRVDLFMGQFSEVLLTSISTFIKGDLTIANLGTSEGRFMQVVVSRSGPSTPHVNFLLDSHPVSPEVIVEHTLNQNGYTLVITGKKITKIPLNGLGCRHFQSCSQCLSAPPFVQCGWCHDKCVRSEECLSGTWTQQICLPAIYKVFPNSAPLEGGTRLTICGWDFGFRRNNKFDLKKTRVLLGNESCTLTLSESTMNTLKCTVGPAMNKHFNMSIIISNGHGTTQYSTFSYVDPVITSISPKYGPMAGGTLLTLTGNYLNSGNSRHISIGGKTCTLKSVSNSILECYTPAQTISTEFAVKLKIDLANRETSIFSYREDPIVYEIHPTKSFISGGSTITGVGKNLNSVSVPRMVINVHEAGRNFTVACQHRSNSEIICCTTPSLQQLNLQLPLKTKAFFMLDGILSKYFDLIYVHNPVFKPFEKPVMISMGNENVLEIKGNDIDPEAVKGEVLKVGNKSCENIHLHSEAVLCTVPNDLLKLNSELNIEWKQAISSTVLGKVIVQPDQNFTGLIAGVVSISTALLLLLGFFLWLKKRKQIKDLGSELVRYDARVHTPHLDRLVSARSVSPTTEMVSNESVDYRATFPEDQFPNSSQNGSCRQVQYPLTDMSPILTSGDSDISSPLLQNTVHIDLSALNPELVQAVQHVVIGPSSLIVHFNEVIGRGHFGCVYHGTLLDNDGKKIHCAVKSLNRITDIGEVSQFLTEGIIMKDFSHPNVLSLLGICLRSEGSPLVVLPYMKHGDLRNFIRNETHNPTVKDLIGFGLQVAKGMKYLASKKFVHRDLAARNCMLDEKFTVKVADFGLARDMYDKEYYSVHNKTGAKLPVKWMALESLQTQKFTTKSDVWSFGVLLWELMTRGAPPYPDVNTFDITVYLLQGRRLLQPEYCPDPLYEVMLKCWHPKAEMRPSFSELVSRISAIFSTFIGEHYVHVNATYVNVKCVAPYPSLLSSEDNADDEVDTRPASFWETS
In words: c-Met (h) kinase assay (IC50). The format is biochemical. To be noted: cells marked (IC50) in the Kd table. As to the method:
as §1, §2, §3

A short description of data set [3]: Pharmacokinetics after intravenous and oral administration in rats. The format is in vivo. The conditions noted are these: for F: oral bioavailability, oral dose not given; for AUC(0-t) / half-life / Vd: rat, plasma; for clearance (CL) after iv dosing / AUC(0-t) / half-life / Vd: iv dosing; for Vd: read-out: Vss. As to the method: The compounds disclosed herein are assessed in pharmacokinetic studies in mice, rats, dogs or monkeys. The compounds are administered as a water solution, 2% HPMC+1% TWEEN®80 in water solution, 5% DMSO+5% solutol in saline, 4% MC suspension or capsule. For the intravenous administration, the animals are generally given at 1 or 2 mg/kg dose. For the oral (p.o.) dosing, mice and rats are generally given 5 or 10 mg/kg dose, and dogs and monkeys are generally given 10 mg/kg dose. The blood samples (0.3 mL) are drawn at 0.25, 0.5, 1.0, 2.0, 3.0, 4.0, 6.0, 8.0, 12 and 24 h time points or 0.083, 0.25, 0.5, 1.0, 2.0, 4.0, 6.0, 8.0 and 24 h time points and centrifuged at 3,000 or 4000 rpm for 2 to 10 min. The plasma solutions are collected, stored at −20° C. or −70° C. until analyzed by LC/MS/MS as described above.

Data set [4] has as its target T1, KDR (h). In words: KINOMEscan competition binding assay, KDR (h). The procedure: (§4) Alternatively, the kinase activities of the compounds can be measured using KINOMEscan™, which is based on a competition binding assay that quantitatively measures the ability of a compound to compete with an immobilized, active-site directed ligand. The assay was performed by combining three components: DNA-tagged kinase; immobilized ligand; and a test compound. The ability of the test compound to compete with the immobilized ligand was measured via quantitative PCR of the DNA tag.
(§5) For most assays, kinase-tagged T7 phage strains were prepared in an E. coli host derived from the BL21 strain. E. coli were grown to log-phase and infected with T7 phage and incubated with shaking at 32° C. until lysis. The lysates were centrifuged and filtered to remove cell debris. The remaining kinases were produced in HEK-293 cells and subsequently tagged with DNA for qPCR detection. Streptavidin-coated magnetic beads were treated with biotinylated small molecule ligands for 30 minutes at room temperature to generate affinity resins for kinase assays. The liganded beads were blocked with excess biotin and washed with blocking buffer (SEABLOCK™ (Pierce), 1% BSA, 0.05% TWEEN®20, 1 mM DTT) to remove unbound ligand and to reduce nonspecific binding. Binding reactions were assembled by combining kinases, liganded affinity beads, and test compounds in 1× binding buffer (20% SEABLOCK™, 0.17×PBS, 0.05% TWEEN®20, 6 mM DTT). All reactions were performed in polystyrene 96-well plates in a final volume of 0.135 mL. The assay plates were incubated at room temperature with shaking for 1 hour and the affinity beads were washed with wash buffer (1×PBS, 0.05% TWEEN®20). The beads were then re-suspended in elution buffer (1×PBS, 0.05% TWEEN®20, 0.5 μM non-biotinylated affinity ligand) and incubated at room temperature with shaking for 30 minutes. The kinase concentration in the eluates was measured by qPCR.
(§6) The kinase assays described herein were performed using KINOMEscan™ Profiling Service at DiscoveRx Corporation, 42501 Albrae St. Fremont, Calif.

Data set [5] can be described thus: Compound stability in rat liver microsomes. The format is in vitro ADME. As to the method:
(§7) Human or rat liver microsomes incubations were conducted in duplicate in polypropylene tubes. The typical incubation mixtures consisted of human liver microsomes (0.5 mg protein/mL), compounds of interest (5 μM) and NADPH (1.0 mM) in a total volume of 200 μL potassium phosphate buffer (PBS, 100 mM, pH 7.4). Compounds were dissolved in DMSO and diluted with PBS such that the final concentration of DMSO was 0.05%. The enzymatic reactions were commenced with the addition of protein after a 3-min preincubation and incubated in a water bath open to the air at 37° C. Reactions were terminated at various time points (0, 5, 10, 15, 30, 60 min) by adding equal volume of ice-cold acetonitrile. The samples were stored at −80° C. until LC/MS/MS assays.
(§8) The concentrations of compounds in the incubation mixtures of human liver microsomes were determined by a LC/MS/MS method. The ranges of the linearity in the concentration range were determined for each tested compounds.
(§9) A parallel incubation was performed using denatured microsomes as the negative control, and reactions were terminated at various time points (0, 15, 60 min) after incubation at 37° C.
(§10) Dextromethorphan (70 μM) was selected as the positive control, and reactions were terminated at various time points (0, 5, 10, 15, 30, 60 min) after incubation at 37° C. Both positive and negative control samples were included in each assay to ensure the integrity of the microsomal incubation system.
(§11) The concentrations of compounds in human liver microsome incubations were plotted as a percentage of the relevant zero time point control for each reaction. The in vivo CLint were extrapolated (ref: Naritomi Y, Terashita S, Kimura S, Suzuki A, Kagayama A, Sugiyama Y. Prediction of human hepatic clearance from in vivo animal experiments and in vitro metabolic studies with liver microsomes from animals and humans. Drug Metabolism and Disposition 2001, 29: 1316-1324.)

Data set [6] deals with T2, c-Met (h). In words: KINOMEscan competition binding assay, c-Met (h). As to the method:
as §4, §5, §6

Data set [7] is described as follows: Compound stability in human liver microsomes. The format is in vitro ADME. To be noted: pH 7.4. As to the method: as §7, §8, §9, §10, §11
In general terms: Liver microsomes are a subcellular fraction often used to study metabolism.

A further data set relates to U87MG glioblastoma cells. As to the kind of experiment: U87MG tumor xenograft model, tumor growth inhibition. It is filed as in vivo, athymic nude mice (BALB/cA nu/nu). The conditions noted are these: mice, oral gavage, 16 days. As to the method: The efficacy of compounds disclosed herein was evaluated in a standard murine model of tumorigenesis. Human tumor cells (U87MG glioblastoma cells from ATCC) were expended in culture, harvested, and injected subcutaneously onto the rear flank of 6-7 week old female athymic nude mice (BALB/cA nu/nu, Hunan SLAC Laboratory Animal, Co.) (n=6-10 for vehicle group and for each dosing group). When tumors reached a volume of 100-250 mm^3, animals were randomly divided into vehicle control (for example, 5% DMSO+70% Captisol® (30%), 7% HCl (pH1), 18% Captisol® (30%); or 7% DMSO, 7% HCl (pH1), 70% Captisol® (30%), 16% Captisol® (30%), or the like) and compound groups. Subsequent administration of compound by oral gavage begins anywhere from day 0 to day 15 post tumor cell challenge and generally continues with once a day for the duration of the experiment.
Progression of tumor growth is assessed by tumor volumes and recorded as a function of time. The long (L) and short (W) axes of the subcutaneous tumors were measured with calipers twice weekly, and the tumor volume (TV) calculated as (L×W^2)/2). TGI was calculated from the difference between the median tumor volumes of vehicle-treated and drug-treated mice, expressed as a percentage of the median tumor volume of the vehicle-treated control group, by the following relation:
[formula] Initial statistical analysis is done by repeated measures analysis of variance (RMANOVA), followed by Scheffe psot hoc testing for multiple comparisons. Vehicle alone (5% DMSO+70% Captisol® (30%), 7% HCl (pH1), 18% Captisol® (30%); or 7% DMSO, 7% HCl (pH1), 70% Captisol® (30%), 16% Captisol® (30%), or the like) is the negative control.

pIC50, pKd: −log10 of the molar value. Where two headings read alike, the source gives them in different places.

T1 sequence (P35968 20-1356): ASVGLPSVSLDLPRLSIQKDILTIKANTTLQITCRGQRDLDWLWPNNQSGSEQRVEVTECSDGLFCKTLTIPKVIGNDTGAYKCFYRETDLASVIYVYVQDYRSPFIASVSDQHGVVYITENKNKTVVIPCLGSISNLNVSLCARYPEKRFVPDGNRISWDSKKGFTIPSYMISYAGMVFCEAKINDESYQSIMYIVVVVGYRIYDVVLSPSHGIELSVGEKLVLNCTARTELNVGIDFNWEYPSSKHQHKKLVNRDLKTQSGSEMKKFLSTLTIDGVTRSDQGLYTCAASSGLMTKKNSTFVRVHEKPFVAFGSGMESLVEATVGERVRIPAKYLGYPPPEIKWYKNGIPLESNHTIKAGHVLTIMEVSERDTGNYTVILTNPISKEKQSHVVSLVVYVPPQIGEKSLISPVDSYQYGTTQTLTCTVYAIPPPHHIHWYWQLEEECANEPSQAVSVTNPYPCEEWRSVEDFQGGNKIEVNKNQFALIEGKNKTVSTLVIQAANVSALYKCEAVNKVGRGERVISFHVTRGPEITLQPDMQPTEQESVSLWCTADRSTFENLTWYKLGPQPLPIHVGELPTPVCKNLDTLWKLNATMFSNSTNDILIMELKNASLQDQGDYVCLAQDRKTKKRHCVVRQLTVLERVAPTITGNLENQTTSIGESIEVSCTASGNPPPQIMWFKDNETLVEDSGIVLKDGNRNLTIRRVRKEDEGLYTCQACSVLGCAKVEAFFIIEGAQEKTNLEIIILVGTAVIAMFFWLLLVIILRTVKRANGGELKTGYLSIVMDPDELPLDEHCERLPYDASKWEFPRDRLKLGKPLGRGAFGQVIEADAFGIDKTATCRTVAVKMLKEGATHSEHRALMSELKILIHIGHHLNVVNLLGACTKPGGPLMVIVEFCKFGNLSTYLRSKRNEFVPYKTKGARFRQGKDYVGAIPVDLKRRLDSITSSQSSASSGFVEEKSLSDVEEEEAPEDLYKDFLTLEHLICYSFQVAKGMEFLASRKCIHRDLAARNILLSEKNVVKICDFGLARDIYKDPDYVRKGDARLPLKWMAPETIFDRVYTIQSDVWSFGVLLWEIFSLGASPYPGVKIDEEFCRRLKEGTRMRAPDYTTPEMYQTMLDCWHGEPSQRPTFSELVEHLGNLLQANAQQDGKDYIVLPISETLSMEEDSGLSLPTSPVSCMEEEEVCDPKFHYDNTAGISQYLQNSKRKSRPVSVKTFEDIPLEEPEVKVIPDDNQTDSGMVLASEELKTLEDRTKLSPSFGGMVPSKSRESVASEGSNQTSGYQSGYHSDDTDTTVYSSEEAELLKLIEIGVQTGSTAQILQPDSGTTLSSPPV

As a reminder, the pIC50 is −log10 of the IC50, conventionally taken in molar units. A low value points to a large IC50. As a reminder, the AUC(0-t) is exposure summed from dosing to a finite time, without extrapolation to infinity. With `Cc1c(C(=O)Nc2ccc(Oc3ccnc(N)c3)c(F)c2)c(=O)n(-c2ccccc2)n1C` [Ex. 22, N-(4-((2-aminopyridin-4-yl)oxy)-3-fluorophenyl)-1,5-dimethyl-3-oxo-2-phenyl-2,3-dihydro-1H-pyrazole-4-carboxamide], the negative-log IC50 (pIC50) at KDR (h) [1] is less than 5.52. Further, the pIC50 against c-Met (h) [2] is 7.08. In data set [3] (2 mg/kg), the “clearance (CL) after iv dosing” value was 13.3 mL/min/kg, the area under the curve AUC(0-t) was found to be 2510 ng·h/mL, the half-life is 0.72 h and the Vd came out at 0.56 L/kg. The same molecule gave a F in data set [3] (iv dose 2 mg/kg) of 78.1%.

By pKd is commonly meant the Kd on a negative log10 scale, so that one unit is a factor of ten. A higher pKd goes with a small Kd. The CLint scaled is the rate of metabolic loss divided by the concentration. On to `Cc1c(C(=O)Nc2ccc(Oc3ccnc(N)c3Cl)c(F)c2)c(=O)n(-c2ccccc2)n1C` [Ex. 3, N-(4-((2-amino-3-chloropyridin-4-yl)oxy)-3-fluorophenyl)-1,5-dimethyl-3-oxo-2-phenyl-2,3-dihydro-1H-pyrazole-4-carboxamide], for which the negative logarithm of the Kd (pKd) was 7.64 on KDR (h) [4] and 8.36 at c-Met (h) [6]. The half-life at 5 μM in data set [5] (pH 7.4, compound 5 μM, NADPH, 37° C., read-out: Rat T1/2) is 1.02 h; in data set [7] (human liver microsomes 0.5 mg protein/mL, compound 5 μM, NADPH, 37° C., read-out: Human T1/2), 12.4 h. Further, the CLint scaled at 5 μM in data set [5] (pH 7.4, in vivo CLint extrapolated) was 40.6 mL/min/kg; in data set [7] (human liver microsomes, in vivo CLint extrapolated), 2.34 mL/min/kg. For the same molecule, the figures for the “TGI % (on last day of dosing)” value in the data set on U87MG glioblastoma cells (10 mg/kg), in the data set with U87MG glioblastoma cells (20 mg/kg) and in the data set with U87MG glioblastoma cells (40 mg/kg) were 53%, 68% and 85%, respectively. The “clearance (CL) after iv dosing” value in data set [3] (1 mg/kg) came to 17 mL/min/kg. This molecule displayed a F in data set [3] (iv dose 1 mg/kg) of 177.1%. Besides, in data set [3] (1 mg/kg), the AUC(0-t) is 922 ng·h/mL. For the same molecule, in data set [3] (1 mg/kg), the half-life is 2.69 h. Besides, the Vd in data set [3] (1 mg/kg) was 1.61 L/kg.

Turning to `Cc1c(C(=O)Nc2ccc(Oc3ccnc(N)c3)cc2)c(=O)n(-c2ccccc2)n1C` [Ex. 1, N-(4-((2-aminopyridin-4-yl)oxy)phenyl)-1,5-dimethyl-3-oxo-2-phenyl-2,3-dihydro-1H-pyrazole-4-carboxamide], on KDR (h) [1], the negative logarithm of the IC50 (pIC50) was less than 5.52. Also, the negative logarithm of the IC50 (pIC50) at c-Met (h) [2] is 6.21. Also, in data set [3] (1 mg/kg), the “clearance (CL) after iv dosing” value was determined as 23.7 mL/min/kg, the AUC(0-t) was found to be 706 ng·h/mL, the half-life is 1.13 h and the Vd is 0.68 L/kg. Also, the F in data set [3] (iv dose 1 mg/kg) was determined as 31.2%.
